Measured values: publication PMC12155096 (International Journal of Molecular Sciences, 2025)
Structures can show the parent of a compound that is named as a salt. Where two headings read alike, the source gives them in different places.

Tests used:
human CYP2C19 = human CYP2C19 (Homo sapiens, UniProt P33261); assay: biochemical; conditions: for AC50: CYP2C19 AC50 (half-maximal activity concentration)
human CYP2D6 [1] = molecular target: T1, human CYP2D6 (Homo sapiens, UniProt P10635); assay: biochemical; conditions: for AC50: CYP2D6 AC50 (half-maximal activity concentration)
human CYP1A2 = molecular target: T2, human CYP1A2 (Homo sapiens, UniProt P05177); assay: biochemical; conditions: for AC50: CYP1A2 AC50 (half-maximal activity concentration)
T2 sequence (P05177 1-516): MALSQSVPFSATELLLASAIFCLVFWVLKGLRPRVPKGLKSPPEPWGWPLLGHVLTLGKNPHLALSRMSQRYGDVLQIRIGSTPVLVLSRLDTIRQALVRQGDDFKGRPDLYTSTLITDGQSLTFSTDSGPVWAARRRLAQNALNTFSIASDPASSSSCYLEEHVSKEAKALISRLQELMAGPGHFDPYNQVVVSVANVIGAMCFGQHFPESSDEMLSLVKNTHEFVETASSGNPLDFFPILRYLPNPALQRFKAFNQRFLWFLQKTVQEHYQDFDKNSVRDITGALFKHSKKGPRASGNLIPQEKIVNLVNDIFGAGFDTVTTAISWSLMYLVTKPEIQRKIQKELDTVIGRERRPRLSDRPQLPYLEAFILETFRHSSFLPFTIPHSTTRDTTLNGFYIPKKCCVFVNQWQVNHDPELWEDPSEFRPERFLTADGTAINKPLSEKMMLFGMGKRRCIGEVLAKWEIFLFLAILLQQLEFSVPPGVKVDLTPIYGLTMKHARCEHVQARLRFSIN

human CYP2D6 [2] = molecular target: T1, human CYP2D6; conditions: human, 1 h
human CYP2C9 = human CYP2C9 (Homo sapiens, UniProt P11712); assay: biochemical; conditions: for AC50: CYP2C9 AC50 (half-maximal activity concentration)
[3] = CYP2C19 IC50 (half-maximal inhibitory concentration)
[4] = CYP2D6 IC50 (half-maximal inhibitory concentration)
[5] = CYP1A2 IC50 (half-maximal inhibitory concentration)
[6] = CYP2C9 IC50 (half-maximal inhibitory concentration)

human CYP2C9, sequence (P11712 whole entry): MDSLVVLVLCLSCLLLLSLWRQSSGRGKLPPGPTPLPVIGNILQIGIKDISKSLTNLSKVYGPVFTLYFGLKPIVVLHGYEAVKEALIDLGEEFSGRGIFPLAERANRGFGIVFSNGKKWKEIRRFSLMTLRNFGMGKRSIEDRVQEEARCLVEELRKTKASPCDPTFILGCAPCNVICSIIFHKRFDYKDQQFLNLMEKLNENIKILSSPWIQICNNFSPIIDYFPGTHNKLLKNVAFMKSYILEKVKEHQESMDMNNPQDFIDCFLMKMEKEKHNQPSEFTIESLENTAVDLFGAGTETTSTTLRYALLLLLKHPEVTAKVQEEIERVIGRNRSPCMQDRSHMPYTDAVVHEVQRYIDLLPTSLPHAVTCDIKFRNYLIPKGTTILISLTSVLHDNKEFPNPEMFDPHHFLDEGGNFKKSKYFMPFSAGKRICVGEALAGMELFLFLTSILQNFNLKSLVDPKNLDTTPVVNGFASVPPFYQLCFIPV
T1 sequence (P10635 whole entry): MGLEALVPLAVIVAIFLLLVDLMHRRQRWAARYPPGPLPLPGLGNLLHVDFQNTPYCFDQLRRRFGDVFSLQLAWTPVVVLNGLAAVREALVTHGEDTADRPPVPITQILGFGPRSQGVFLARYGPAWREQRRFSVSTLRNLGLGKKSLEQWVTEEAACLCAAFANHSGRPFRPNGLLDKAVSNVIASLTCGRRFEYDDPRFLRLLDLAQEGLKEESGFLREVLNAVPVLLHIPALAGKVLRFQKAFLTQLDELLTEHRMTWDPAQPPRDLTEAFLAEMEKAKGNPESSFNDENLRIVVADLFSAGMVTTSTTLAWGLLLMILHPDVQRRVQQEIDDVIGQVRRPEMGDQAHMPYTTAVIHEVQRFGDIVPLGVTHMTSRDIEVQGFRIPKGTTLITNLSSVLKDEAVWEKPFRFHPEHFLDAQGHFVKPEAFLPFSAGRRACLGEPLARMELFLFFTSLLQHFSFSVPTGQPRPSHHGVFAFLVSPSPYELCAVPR
human CYP2C19, sequence (P33261 whole entry): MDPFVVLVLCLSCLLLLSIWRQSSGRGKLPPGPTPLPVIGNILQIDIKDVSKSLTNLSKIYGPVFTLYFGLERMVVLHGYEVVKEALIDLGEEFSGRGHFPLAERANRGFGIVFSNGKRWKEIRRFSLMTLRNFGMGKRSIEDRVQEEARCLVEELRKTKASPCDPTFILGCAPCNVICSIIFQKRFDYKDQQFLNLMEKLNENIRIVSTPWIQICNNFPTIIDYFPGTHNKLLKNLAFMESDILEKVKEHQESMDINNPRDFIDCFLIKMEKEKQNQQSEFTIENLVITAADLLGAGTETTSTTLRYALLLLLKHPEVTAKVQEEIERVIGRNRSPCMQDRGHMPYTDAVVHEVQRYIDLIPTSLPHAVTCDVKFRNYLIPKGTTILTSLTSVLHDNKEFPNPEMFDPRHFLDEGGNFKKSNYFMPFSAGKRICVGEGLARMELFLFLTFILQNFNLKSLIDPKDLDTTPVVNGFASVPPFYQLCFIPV

Clc1cccc(C(c2ccc3[nH]cnc3c2)n2ccnc2)c1 (stereo not drawn) [Liarozole]
IC50 (human CYP2C19): 7.61 ± 4.78 µM | IC50 (human CYP2D6 [1]): 31 ± 3.57 µM | IC50 (human CYP1A2): 16.8 ± 1.09 µM | CYP2D6 Efficacy (in parenthesis) (human CYP2D6 [2]): 31.04 ± 3.57 (-56 ± 13) % | IC50 (human CYP2C9): 11.2 ± 2.55 µM

CC1CCC(C(C)C)C(OC(=O)c2ccccc2N)C1 (stereo not drawn) [Menthyl anthranilate]
AC50 (human CYP2C19): 4.62 µM | AC50 (human CYP2D6 [1]): 57.9 µM | AC50 (human CYP1A2): 16.6 µM | AC50 (human CYP2C9): 4.33 µM

COc1ccc(C(c2ccc(OC)cc2)C(Cl)(Cl)Cl)cc1 [Methoxychlor]
IC50 (human CYP2C19; [3]): 0.86 µM | IC50 (human CYP2D6 [1]; [4]): 35.5 µM | IC50 (human CYP1A2; [5]): 17.8 µM | IC50 (human CYP2C9; [6]): 2.45 µM

CCCCCOc1ccccc1/C(=C\SC)n1ccnc1 [Neticonazole]
IC50 (human CYP2C19): 3.49 ± 2.23 µM | IC50 (human CYP2D6 [1]): 7.69 ± 5.3 µM | IC50 (human CYP1A2): 4.51 ± 2.88 µM | IC50 (human CYP2C9): 7.76 ± 3.93 µM

CC(C)OC(=O)c1cc(C(=O)OC(C)C)cc([N+](=O)[O-])c1 [Nitrothal-isopropyl]
IC50 (human CYP2C19): 0.52 µM | IC50 (human CYP2D6 [1]): 6.51 µM | IC50 (human CYP1A2): 2.34 µM | IC50 (human CYP2C9): 1.06 µM

CCN(CC)Cc1nccn1-c1ccc([N+](=O)[O-])cc1C(=O)c1ccccc1Cl [Nizofenone]
IC50 (human CYP2C19): 18.8 µM | IC50 (human CYP2D6 [1]): 2.98 µM | IC50 (human CYP1A2): 19.8 µM | CYP2D6 Efficacy (in parenthesis) (human CYP2D6 [2]): 2.98 ± 0.19 (-103 ± 6) % | IC50 (human CYP2C9): 25.1 µM

CC(CCc1ccccc1)NC(C)C(O)c1ccc(O)cc1 (stereo not drawn) [Nylidrin]
AC50 (human CYP2C19): 9.42 µM | IC50 (human CYP2C19; [3]): 9.42 µM | AC50 (human CYP2D6 [1]): 0.49 µM | IC50 (human CYP2D6 [1]; [4]): 0.49 µM | AC50 (human CYP1A2): 13.6 µM | IC50 (human CYP1A2; [5]): 13.6 µM

C/C(=C(/OCCOc1ccc(Cl)cc1)c1ccc(Cl)cc1Cl)n1ccnc1 [Omoconazole]
IC50 (human CYP2C19): 0.92 ± 0.4 µM | IC50 (human CYP2D6 [1]): 1.67 ± 0.11 µM | IC50 (human CYP1A2): 2.5 ± 0.24 µM | IC50 (human CYP2C9): 0.87 ± 0.1 µM

CCCCCC(C=O)=Cc1ccccc1 [Pentylcinnamaldehyde]
AC50 (human CYP2C19): 30.2 µM | AC50 (human CYP2D6 [1]): 49.4 µM | AC50 (human CYP1A2): 29.1 µM | AC50 (human CYP2C9): 37 µM

COP(=S)(OC)SCN1C(=O)c2ccccc2C1=O [Phosmet]
IC50 (human CYP2C19; [3]): 0.47 µM | IC50 (human CYP2D6 [1]): 24.6 µM | IC50 (human CYP1A2; [5]): 6.92 µM | IC50 (human CYP2C9): 2.04 µM

CNC(=O)Oc1ccc2c(c1)[C@]1(C)CCN(C)[C@@H]1N2C [Physostigmine]
IC50 (human CYP2C19; [3]): 45.4 µM | IC50 (human CYP2D6 [1]; [4]): 0.59 µM | IC50 (human CYP1A2; [5]): 55.4 µM | IC50 (human CYP2C9; [6]): 80 µM

CCCCOCCOCCOCc1cc2c(cc1CCC)OCO2 [Piperonyl butoxide]
IC50 (human CYP2C19; [3]): 0.5 µM | IC50 (human CYP2D6 [1]; [4]): 6.78 µM | IC50 (human CYP1A2; [5]): 1.03 µM | IC50 (human CYP2C9; [6]): 0.65 µM

CC(=O)SCC(Cc1ccccc1)C(=O)NCC(=O)OCc1ccccc1 (stereo not drawn) [Racecadotril]
IC50 (human CYP2C19; [3]): 0.64 µM | IC50 (human CYP2D6 [1]; [4]): 1.24 µM | IC50 (human CYP1A2; [5]): 15.1 µM | IC50 (human CYP2C9; [6]): 3.34 µM

C[C@]12Cc3c[nH]nc3C[C@@H]1CC[C@@H]1[C@@H]2CC[C@@]2(C)[C@H]1CC[C@]2(C)O [Stanozolol]
IC50 (human CYP2C19; [3]): 0.55 µM | IC50 (human CYP2D6 [1]; [4]): 10.8 µM | IC50 (human CYP1A2; [5]): 21.5 µM | IC50 (human CYP2C9; [6]): 0.94 µM

Nc1ccc(S(=O)(=O)Nc2nccs2)cc1 [Sulfathiazole]
AC50 (human CYP2D6 [1]): 56.1 µM | AC50 (human CYP1A2): 33.2 µM | AC50 (human CYP2C9): 13.3 µM

CN1CCN(CCCN2c3ccccc3Sc3ccc(S(=O)(=O)N(C)C)cc32)CC1 [Thioproperazine dimethanesulfonate]
IC50 (human CYP2D6 [1]): 15.5 µM | IC50 (human CYP1A2): 24.1 ± 9.56 µM | IC50 (human CYP2C9): 17.4 µM

CCCc1c(OCCCCc2nnn[nH]2)ccc(C(C)=O)c1O [Tomelukast]
IC50 (human CYP2C19; [3]): 0.15 µM | IC50 (human CYP2D6 [1]; [4]): 31.7 µM | IC50 (human CYP1A2; [5]): 54.3 µM | IC50 (human CYP2C9; [6]): 0.15 µM

CC(C)(C)C(O)C(Oc1ccc(Cl)cc1)n1cncn1 (stereo not drawn) [Triadimenol]
IC50 (human CYP2C19; [3]): 1.38 µM | IC50 (human CYP2D6 [1]; [4]): 65.1 µM | IC50 (human CYP1A2; [5]): 33.6 µM | IC50 (human CYP2C9; [6]): 34.4 µM

O[C@@H](COc1cccc2ncccc12)CN1CCN([C@@H]2c3ccccc3[C@@H]3[C@H](c4ccccc42)C3(F)F)CC1 [Zosuquidar trihydrochloride]
IC50 (human CYP2C19; [3]): 20.4 µM | IC50 (human CYP2D6 [1]; [4]): 15.2 µM | IC50 (human CYP1A2; [5]): 15.5 µM | IC50 (human CYP2C9; [6]): 9.14 µM
